# From patent US20150118165A1, “USE OF CYCLOHEXANOL ETHERS HAVING ANTIMICROBIAL PROPERTIES” (Merck Patent GmbH, priority 2012, published 2015)
# Tests used:
# [1] = tested on: Staphylococcus epidermidis (ATCC 12228); assay: Antimicrobial action, microbe count after incubation in CASO broth; assay type: cell-based; conditions: sample 1.0% in water/ethanol (12% of ethanol), 500 µl sample + 500 µl suspension; 35° C., 24 h or 48 h; initial count 5.8 × 10^4
# Experimental: (§1) For sample preparation, the substance I-2 being investigated is homogeneously dispersed in an amount of 1.0% in a water/ethanol mixture (12% of ethanol) (=sample). A suspension of Staphylococcus epidermidis (ATCC 12228) having an optical density of 1.0 in CASO broth (Merck 1.05459) is diluted 1:10000 with CASO broth. 500 μl of sample are added to 500 μl of microorganism suspension, and the mixture is incubated at 35° C. for 24 h or 48 h. After the incubation, the test batches are diluted to −6 in 10 unit steps, and 0.1 ml of each is plated-out on CASO agar (Merck 1.05458) and incubated at 35° C. for 24 h.
# (§2) In order to determine the initial microbe count, 0.1 ml of the bacteria suspension used are plated-out on CASO agar (Merck 1.05458) and incubated at 35° C. for 24 h.
# (§3) The colonies are subsequently counted, and the microbe count per ml is determined compared with the negative control (12% of ethanol in water).
# Propionibacterium acnes = assay: Antimicrobial action, microbe count (procedure as Example 1); assay type: cell-based; conditions: for Δlog: t24 h vs t0
# Experimental: as §1, §2, §3
# (§4) Procedure in Accordance with Example 1
# (§5) The concentrations indicated are the final use concentrations. In order to prepare the stock solution, double the final concentration are prepared in the solvent indicated. This is subsequently diluted 1:2 with the corresponding microbe suspension. In the case of Aspergillus brasiliensis, the microbe count determination is exceptionally carried out after 48 h, in the case of Malassezia furfur after 72 h.
# Aspergillus brasiliensis = assay: Antimicrobial action, microbe count (procedure as Example 1, count after 48 h); assay type: cell-based; conditions: for Microbe count t24 h: count after 48 h; for Δlog: count after 48 h vs t0
# Experimental: as §1, §2, §3, §4, §5
# Corynebacterium xerosis = assay: Antimicrobial action, microbe count (procedure as Example 1); assay type: cell-based; conditions: 0.5% in H2O
# Experimental: as §1, §2, §3, §4, §5
# Staphylococcus aureus = assay: as above; assay type: cell-based; conditions: 1.0% in H2O(12% of ethanol)
# Experimental: as §1, §2, §3, §4, §5
# Candida albicans = assay: as above; assay type: cell-based; conditions: for Δlog: t24 h vs t0
# Experimental: as §1, §2, §3, §4, §5
# Serratia marcescens = assay: as above; assay type: cell-based; conditions: for Δlog: t24 h vs t0
# Experimental: as §1, §2, §3, §4, §5
# Salmonella enterica = assay: as above; assay type: cell-based; conditions: for Δlog: t24 h vs t0
# Experimental: as §1, §2, §3, §4, §5
# [2] = Measurement of density and viscosities (Ubbelohde viscometer) to estimate spreadability; assay type: physicochemical
# Experimental: After measurement of the densities and kinematic viscosities using an Ubbelohde viscometer, the following dynamic viscosities arise:
# Kinematic viscosity of I-1: 15.2 mm^2/s Density of I-1: 0.9897 g/cm^3; 25° C.
# Dynamic viscosity of I-1=kinematic viscosity of I-1×density I-1=15.0 [mPas]
# Since spreadabilities and viscosities of cosmetic emollients correlate well, good spreadabilities can be concluded from the viscosities determined.
# Malassezia furfur = assay: Antimicrobial action, microbe count (procedure as Example 1, count after 72 h); assay type: cell-based; conditions: 1.0% in H2O
# Experimental: as §1, §2, §3, §4, §5
# Echerichia coli = assay: Antimicrobial action, microbe count (procedure as Example 1); assay type: cell-based, Escherichia coli; conditions: for Δlog: t24 h vs t0
# Experimental: as §1, §2, §3, §4, §5
# [3] = 0.25% in H2O, count t0 1.3 × 10^6
# [4] = 0.25% in H2O, count t0 3.2 × 10^5
structure (smiles),measurement,setting,value
COC1CCC(O)CC1 (stereo not shown) [Substance I-2],Final microbe count,[1],4.0 × 10^4 CFU/ml
"OCCOC1CCC(OCCO)CC1 (stereo not shown) [Substance I-3, 2-[4-(2-hydroxyethoxy)cyclohexyloxy]ethanol]",Microbe count t24 h,"Propionibacterium acnes; 0.5% in H2O, count t0 3.4 × 10^5",4.0 × 10^7
same,Δlog,Propionibacterium acnes; 0.5% in H2O,+2.07
same,Microbe count t24 h,"Aspergillus brasiliensis; 0.5% in H2O, count t0 2.8 × 10^4",1.6 × 10^4
same,Δlog,"Aspergillus brasiliensis; 0.5% in H2O, t0 2.8 × 10^4",−0.24
same,Δlog,Aspergillus brasiliensis; 1.0% in H2O,−1.30
same,Microbe count t24 h,"Aspergillus brasiliensis; 1.0% in H2O, count t0 2.8 × 10^4",1.4 × 10^3
OCCOC1CCCCC1 [Substance I-1],Microbe count t24 h,"Propionibacterium acnes; 1.0% in H2O, count t0 7.8 × 10^5",7.0 × 10^5
same,Δlog,Propionibacterium acnes; 1.0% in H2O,−0.05
same,Microbe count t24 h,Corynebacterium xerosis; count t0 1.0 × 10^6,2.0 × 10^6
same,Δlog,Corynebacterium xerosis; t24 h vs t0,+0.30
same,Microbe count t24 h,Staphylococcus aureus; count t0 7.2 × 10^4,2.5 × 10^2
same,Δlog,Staphylococcus aureus; t24 h vs t0,−2.46
same,Microbe count t24 h,Candida albicans; [3],4.3 × 10^6
same,Δlog,Candida albicans; 0.25% in H2O,+0.53
same,Microbe count t24 h,"Candida albicans; 1.0% in H2O(12% of ethanol), count t0 6.0 × 10^3",0
same,Δlog,Candida albicans; 1.0% in H2O(12% of ethanol),−3.78
same,Microbe count t24 h,"Serratia marcescens; 0.5% in H2O, count t0 2.9 × 10^5",1.7 × 10^4
same,Δlog,Serratia marcescens; 0.5% in H2O,−1.23
same,Microbe count t24 h,"Serratia marcescens; 1.0% in H2O, count t0 2.5 × 10^5",0
same,Δlog,Serratia marcescens; 1.0% in H2O,−5.40
same,Microbe count t24 h,"Salmonella enterica; 0.5% in H2O, count t0 1.0 × 10^6",9.0 × 10^3
same,Δlog,Salmonella enterica; 0.5% in H2O,−2.05
same,Microbe count t24 h,"Salmonella enterica; 0.8% in H2O(12% of ethanol), count t0 1.3 × 10^4",0
same,Δlog,Salmonella enterica; 0.8% in H2O(12% of ethanol),−4.11
same,Density,[2]; 25° C.,0.9897 g/mL
same,Kinematic viscosity,[2]; Ubbelohde viscometer,15.2 mm^2/s
same,Dynamic viscosity,[2]; kinematic viscosity × density,15.0 mPas
same,Δlog,Aspergillus brasiliensis; 1.0% in H2O(12% of ethanol),−0.90
same,Microbe count t24 h,"Aspergillus brasiliensis; 1.0% in H2O(12% of ethanol), count t0 8.0 × 10^2",1.0 × 10^2
same,Δlog,Malassezia furfur; count after 72 h vs t0,−2.60
same,Microbe count t24 h,"Malassezia furfur; count t0 4.0 × 10^2, count after 72 h",0
same,Microbe count t24 h,Echerichia coli; [4],8.0 × 10^8
same,Δlog,Echerichia coli; 0.25% in H2O,+3.40
same,Microbe count t24 h,"Echerichia coli; 0.8% in H2O(12% of ethanol), count t0 6.3 × 10^4",0
same,Δlog,Echerichia coli; 0.8% in H2O(12% of ethanol),−4.80
CC(O)COC1CCCCC1 (stereo not shown) [Substance I-9],Microbe count t24 h,Candida albicans; [3],1.4 × 10^6
same,Δlog,Candida albicans; 0.25% in H2O,+0.04
same,Microbe count t24 h,Echerichia coli; [4],4.30 × 10^8
same,Δlog,Echerichia coli; 0.25% in H2O,+3.13
